# Results taken from ChEMBL document CHEMBL4002550, “Fragment-based discovery of novel pentacyclic triterpenoid derivatives as cholesteryl ester transfer protein inhibitors” (Eur J Med Chem, 2017).
# Molecular target: T1, Cholesteryl ester transfer protein (Homo sapiens, UniProt P11597)
# T1 sequence (P11597 whole entry): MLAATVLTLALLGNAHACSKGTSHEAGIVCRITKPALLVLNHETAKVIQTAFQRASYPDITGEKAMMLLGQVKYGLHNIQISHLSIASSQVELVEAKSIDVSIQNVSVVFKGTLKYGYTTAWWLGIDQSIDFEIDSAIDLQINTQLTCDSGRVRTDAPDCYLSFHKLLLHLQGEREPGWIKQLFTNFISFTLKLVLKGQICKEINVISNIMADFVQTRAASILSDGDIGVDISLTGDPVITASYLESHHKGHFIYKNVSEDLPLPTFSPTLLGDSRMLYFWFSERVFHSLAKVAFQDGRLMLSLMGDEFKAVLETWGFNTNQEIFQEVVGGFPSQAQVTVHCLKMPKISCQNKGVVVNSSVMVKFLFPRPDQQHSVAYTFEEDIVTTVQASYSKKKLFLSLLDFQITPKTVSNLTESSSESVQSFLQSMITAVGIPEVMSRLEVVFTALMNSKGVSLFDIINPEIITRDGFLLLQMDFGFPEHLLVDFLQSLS
# Assay: Inhibition of recombinant full length human CETP expressed in CHO cells assessed as reduction in BODIPY-CE transfer measured after 1 to 3 hrs by fluorescence assay
# Assay type: cell-based
row,IC50,Compound
1,> 50 µM,CCOC(=O)N1c2ccc(C(F)(F)F)cc2[C@@H](NC(=O)CC(=O)O[C@H]2CC[C@]3(C)[C@H]4CC=C5[C@@H]6CC(C)(C)CC[C@]6(C(=O)O)CC[C@@]5(C)[C@]4(C)CC[C@H]3C2(C)C)C[C@H]1CC
2,> 50 µM,CCOC(=O)N1c2ccc(C(F)(F)F)cc2[C@@H](NC(=O)CCCC(=O)O[C@H]2CC[C@]3(C)[C@H]4CC=C5[C@@H]6CC(C)(C)CC[C@]6(C(=O)O)CC[C@@]5(C)[C@]4(C)CC[C@H]3C2(C)C)C[C@H]1CC
3,0.28 µM,CCOC(=O)N1c2ccc(C(F)(F)F)cc2[C@@H](NC(=O)CCC(=O)O[C@H]2CC[C@]3(C)[C@H]4CC=C5[C@@H]6[C@@H](C)[C@H](C)CC[C@]6(C(=O)O)CC[C@@]5(C)[C@]4(C)CC[C@H]3C2(C)C)C[C@H]1CC
4,> 50 µM,CCOC(=O)N1c2ccc(C(F)(F)F)cc2[C@@H](NC(=O)CCC(=O)O[C@H]2CC[C@]3(C)[C@H]4CC=C5[C@@H]6CC(C)(C)CC[C@]6(C(=O)O)CC[C@@]5(C)[C@]4(C)CC[C@H]3C2(C)C)C[C@H]1CC
5,3.79 µM,CCOC(=O)N1c2ccc(C(F)(F)F)cc2[C@@H](NC(=O)CCCC(=O)O[C@H]2CC[C@]3(C)[C@H]4CC=C5[C@@H]6[C@@H](C)[C@H](C)CC[C@]6(C(=O)O)CC[C@@]5(C)[C@]4(C)CC[C@H]3C2(C)C)C[C@H]1CC
6,4.42 µM,CCOC(=O)N1c2ccc(C(F)(F)F)cc2[C@@H](NC(=O)CC(=O)O[C@H]2CC[C@]3(C)[C@H]4CC=C5[C@@H]6[C@@H](C)[C@H](C)CC[C@]6(C(=O)O)CC[C@@]5(C)[C@]4(C)CC[C@H]3C2(C)C)C[C@H]1CC
